Usually EC50 stands for the concentration at which the effect is half-maximal.

Each structure is given as a SMILES string. Read-outs that look alike come from different tables or passages of the source. Residues, ends and D or L forms follow the SMILES beside them. *: point of attachment. Biotin = O=C1N[C@H]2[C@H](CS[C@H]2CCCCC(=O)*)N1; X2 = O=C(CCN1C(=O)CC(*)C1=O)NCCc1ccc(O)c(O)c1; X1 = C[C@@H]1NC(=O)N[C@@H]1CCCCCC(=O)*

The values that follow come from PMC7220906, “Target-responsive vasoactive probes for ultrasensitive molecular imaging” (Nature Communications, 2020).

Experiment [1] has as its target T1, PACAP receptor PAC1 (Homo sapiens, UniProt P41586).
T1 construct: expressed in transfected cells; host or cells: CHO K1 cells stably transduced by lentivirus with PAC1 and the Glo22F cAMP luciferase
T1 sequence (P41586 21-468): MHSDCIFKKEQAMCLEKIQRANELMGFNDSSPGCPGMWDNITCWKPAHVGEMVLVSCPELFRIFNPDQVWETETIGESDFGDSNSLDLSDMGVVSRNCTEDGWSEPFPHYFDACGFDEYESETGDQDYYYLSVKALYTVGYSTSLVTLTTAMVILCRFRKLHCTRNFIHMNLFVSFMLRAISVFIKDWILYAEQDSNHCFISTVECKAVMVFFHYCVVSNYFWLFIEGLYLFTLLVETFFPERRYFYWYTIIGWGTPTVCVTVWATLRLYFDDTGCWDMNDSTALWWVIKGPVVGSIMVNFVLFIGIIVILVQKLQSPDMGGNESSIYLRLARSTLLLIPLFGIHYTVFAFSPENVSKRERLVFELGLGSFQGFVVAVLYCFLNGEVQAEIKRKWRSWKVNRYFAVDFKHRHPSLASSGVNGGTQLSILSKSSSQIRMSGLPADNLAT
The experiment can be described thus: PAC1 luminescence (GloSensor cAMP) assay of PACAP derivatives. In kind it is cell-based. The method, then: (Promega, Madison, WI). We generated a CHO K1 cell line expressing the required cAMP-dependent luciferase and PAC1 receptor. 24 h before the assay, 2500 cells per well were seeded in 100 µl F10 with 10% FBS in white opaque clear-bottom 96-well plates (Costar, Coppell, TX). […] Luminescence was measured for 30 min using a microtiter plate reader and evaluated after the signal reached a plateau (15 min).
Biotin (BT) and desthiobiotin (dBT) were incorporated as lysine sidechain-derivatized monomers in the synthesis; polyethylene glycol (PEG)-linked BT was incorporated as a BT-functionalized glutamine monomer spaced using a linker of four PEG units. […] Further BT-AVATar activation studies were performed using biotinylated bovine serum albumin (BSA, Sigma-Aldrich) containing 100 nM BT or biotinylated cells containing 150 nM BT (preparation see below) as analytes.
Addition of the maleimido functional group was achieved by reacting DA with N-succinimidyl 3-maleimidopropionate in anhydrous dimethylformamide and further purification using HPLC. The resulting functionalized neurotransmitter, DA-Mal, was further characterized by standard methods (Supplementary Methods and Supplementary Figs. 8 and 9). […] Dopamine sensitivity of the DA-AVATar was examined using freshly prepared DA (Sigma-Aldrich) stocks in PBS pH 7.4.

Experiment [2] deals with streptavidin (SA). On the set-up: method as in 2 sources, ref 21 = [21]; PMID 9601024; doi:10.1021/bi9803123; 21. Klumb LA Chu V Stayton PS Energetic roles of hydrogen bonds at the ureido oxygen binding pocket in the streptavidin−biotin complex Biochemistry 1998 37 7657 7663 10.1021/bi9803123 9601024 ||| ref 22 = [22]; PMID 7041971; doi:10.1021/bi00534a024; 22. Hofmann K Titus G Montibeller JA Finn FM Avidin binding of carboxyl-substituted biotin and analogues Biochemistry 1982 21 978 984 10.1021/bi00534a024 7041971. The note with it: cited from earlier work.

The mark [3] stands for this setting: CHO K1 cells expressing PAC1 and cAMP-dependent luciferase, no streptavidin, mean ± SD of duplicates, read-out: EC50 for PAC1 receptor activation in the absence of SA.

For `CC[C@H](C)[C@H](NC(=O)CNC(=O)[C@H](CC(=O)O)NC(=O)[C@H](CO)NC(=O)[C@@H](N)Cc1c[nH]cn1)C(=O)N[C@@H](Cc1ccccc1)C(=O)N[C@H](C(=O)N[C@@H](CC(=O)O)C(=O)N[C@@H](CO)C(=O)N[C@@H](CCCCNC(=O)CCCC[C@@H]1SC[C@@H]2NC(=O)N[C@@H]21)C(=O)N[C@@H](CO)C(=O)N[C@@H](CCCNC(=N)N)C(=O)N[C@@H](Cc1ccc(O)cc1)C(=O)N[C@@H](CCCNC(=N)N)C(=O)N[C@@H](CCCCN)C(=O)N[C@@H](CCC(N)=O)C(=O)N[C@@H](CCSC)C(=O)N[C@@H](C)C(=O)N[C@H](C(=O)N[C@@H](CCCCNC(=O)CCCC[C@@H]1SC[C@@H]2NC(=O)N[C@@H]21)C(=O)N[C@@H](CCCCN)C(=O)N[C@@H](Cc1ccc(O)cc1)C(=O)N[C@@H](CC(C)C)C(=O)N[C@@H](C)C(=O)N[C@@H](C)C(=O)N[C@H](C(=O)N[C@@H](CC(C)C)C(=O)NCC(=O)N[C@@H](CCCCN)C(=O)N[C@@H](CCCNC(=N)N)C(=O)N[C@@H](Cc1ccc(O)cc1)C(=O)N[C@@H](CCCCN)C(=O)N[C@@H](CCC(N)=O)C(=O)N[C@@H](CCCNC(=N)N)C(=O)N[C@H](C(=O)N[C@@H](CCCCN)C(=O)N[C@@H](CC(N)=O)C(=O)N[C@@H](CCCCN)C(N)=O)C(C)C)C(C)C)C(C)C)[C@@H](C)O` [PACAP-10,20-BT] (H-HSDGIFTDSK(Biotin)SRYRKQMAVK(Biotin)KYLAAVLGKRYKQRVKNK-NH2), the EC50 in experiment [1] (setting [3]) was 0.061 ± 0.007 nM. In the case of `CC[C@H](C)[C@H](NC(=O)CNC(=O)[C@H](CC(=O)O)NC(=O)[C@H](CO)NC(=O)[C@@H](N)Cc1c[nH]cn1)C(=O)N[C@@H](Cc1ccccc1)C(=O)N[C@H](C(=O)N[C@@H](CC(=O)O)C(=O)N[C@@H](CO)C(=O)N[C@@H](CSC1CC(=O)N(CCC(=O)NCCc2ccc(O)c(O)c2)C1=O)C(=O)N[C@@H](CO)C(=O)N[C@@H](CCCNC(=N)N)C(=O)N[C@@H](Cc1ccc(O)cc1)C(=O)N[C@@H](CCCNC(=N)N)C(=O)N[C@@H](CCCCN)C(=O)N[C@@H](CCC(N)=O)C(=O)N[C@@H](CCSC)C(=O)N[C@@H](C)C(=O)N[C@H](C(=O)N[C@@H](CSC1CC(=O)N(CCC(=O)NCCc2ccc(O)c(O)c2)C1=O)C(=O)N[C@@H](CCCCN)C(=O)N[C@@H](Cc1ccc(O)cc1)C(=O)N[C@@H](CC(C)C)C(=O)N[C@@H](C)C(=O)N[C@@H](C)C(=O)N[C@H](C(=O)N[C@@H](CC(C)C)C(=O)NCC(=O)N[C@@H](CCCCN)C(=O)N[C@@H](CCCNC(=N)N)C(=O)N[C@@H](Cc1ccc(O)cc1)C(=O)N[C@@H](CCCCN)C(=O)N[C@@H](CCC(N)=O)C(=O)N[C@@H](CCCNC(=N)N)C(=O)N[C@H](C(=O)N[C@@H](CCCCN)C(=O)N[C@@H](CC(N)=O)C(=O)N[C@@H](CCCCN)C(N)=O)C(C)C)C(C)C)C(C)C)[C@@H](C)O` (some centres unmarked) [PACAP-10,20-DA] (H-HSDGIFTDSC(X2)SRYRKQMAVC(X2)KYLAAVLGKRYKQRVKNK-NH2), in experiment [1] (DA conjugate, no IgG, SD of duplicates, read-out: EC50 for PAC1 receptor activation), the EC50 turned out to be 2.5 ± 0.6 nM. Turning to `O=C(O)CCCC[C@@H]1SC[C@@H]2NC(=O)N[C@@H]21` [biotin], in experiment [2], the “characteristic dissociation time of SA from biotin” value is on record as ~ 7 h. As for `CC[C@H](C)[C@H](NC(=O)CNC(=O)[C@H](CC(=O)O)NC(=O)[C@H](CO)NC(=O)[C@@H](N)Cc1c[nH]cn1)C(=O)N[C@@H](Cc1ccccc1)C(=O)N[C@H](C(=O)N[C@@H](CC(=O)O)C(=O)N[C@@H](CO)C(=O)N[C@@H](CCCCNC(=O)CCCCC[C@H]1NC(=O)N[C@H]1C)C(=O)N[C@@H](CO)C(=O)N[C@@H](CCCNC(=N)N)C(=O)N[C@@H](Cc1ccc(O)cc1)C(=O)N[C@@H](CCCNC(=N)N)C(=O)N[C@@H](CCCCN)C(=O)N[C@@H](CCC(N)=O)C(=O)N[C@@H](CCSC)C(=O)N[C@@H](C)C(=O)N[C@H](C(=O)N[C@@H](CCCCNC(=O)CCCCC[C@H]1NC(=O)N[C@H]1C)C(=O)N[C@@H](CCCCN)C(=O)N[C@@H](Cc1ccc(O)cc1)C(=O)N[C@@H](CC(C)C)C(=O)N[C@@H](C)C(=O)N[C@@H](C)C(=O)N[C@H](C(=O)N[C@@H](CC(C)C)C(=O)NCC(=O)N[C@@H](CCCCN)C(=O)N[C@@H](CCCNC(=N)N)C(=O)N[C@@H](Cc1ccc(O)cc1)C(=O)N[C@@H](CCCCNC(=O)CCCCC[C@H]1NC(=O)N[C@H]1C)C(=O)N[C@@H](CCC(N)=O)C(=O)N[C@@H](CCCNC(=N)N)C(=O)N[C@H](C(=O)N[C@@H](CCCCN)C(=O)N[C@@H](CC(N)=O)C(=O)N[C@@H](CCCCN)C(N)=O)C(C)C)C(C)C)C(C)C)[C@@H](C)O` [PACAP-10,20,32-dBT] (H-HSDGIFTDSK(X1)SRYRKQMAVK(X1)KYLAAVLGKRYK(X1)QRVKNK-NH2), the EC50 in experiment [1] (setting [3]) came to 0.13 ± 0.002 nM. Consider `C[C@@H]1NC(=O)N[C@@H]1CCCCCC(=O)O` [desthiobiotin], for which the “affinity for SA relative to biotin (lower)” value in experiment [2] is 10,000 fold.
